The source of these data is ChEMBL document CHEMBL5465560, “Selectivity Literature for EUbOPEN Chemogenomic Library” (2024).

SMILES strings stand for the structures.

For test [1], the target named is T1, Activin receptor type-1B (Homo sapiens) (UniProt P36896).
T1 sequence (whole entry): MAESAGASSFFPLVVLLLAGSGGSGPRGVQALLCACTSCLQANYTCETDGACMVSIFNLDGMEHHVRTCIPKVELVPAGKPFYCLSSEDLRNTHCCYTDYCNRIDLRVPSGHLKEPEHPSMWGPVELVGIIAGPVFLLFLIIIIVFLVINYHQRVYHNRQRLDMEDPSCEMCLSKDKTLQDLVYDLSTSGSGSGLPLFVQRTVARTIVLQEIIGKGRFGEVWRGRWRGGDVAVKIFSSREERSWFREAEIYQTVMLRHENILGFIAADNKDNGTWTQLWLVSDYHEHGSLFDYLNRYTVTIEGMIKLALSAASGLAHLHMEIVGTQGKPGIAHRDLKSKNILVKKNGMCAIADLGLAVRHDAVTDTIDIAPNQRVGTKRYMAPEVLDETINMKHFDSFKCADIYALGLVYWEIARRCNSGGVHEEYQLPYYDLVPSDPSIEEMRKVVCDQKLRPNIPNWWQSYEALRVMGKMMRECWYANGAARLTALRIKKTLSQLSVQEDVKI
The conditions noted are these: at 10 µM.

The target in test [2] is T2, 3-phosphoinositide-dependent protein kinase 1 (Homo sapiens) (UniProt O15530).
T2 sequence (whole entry): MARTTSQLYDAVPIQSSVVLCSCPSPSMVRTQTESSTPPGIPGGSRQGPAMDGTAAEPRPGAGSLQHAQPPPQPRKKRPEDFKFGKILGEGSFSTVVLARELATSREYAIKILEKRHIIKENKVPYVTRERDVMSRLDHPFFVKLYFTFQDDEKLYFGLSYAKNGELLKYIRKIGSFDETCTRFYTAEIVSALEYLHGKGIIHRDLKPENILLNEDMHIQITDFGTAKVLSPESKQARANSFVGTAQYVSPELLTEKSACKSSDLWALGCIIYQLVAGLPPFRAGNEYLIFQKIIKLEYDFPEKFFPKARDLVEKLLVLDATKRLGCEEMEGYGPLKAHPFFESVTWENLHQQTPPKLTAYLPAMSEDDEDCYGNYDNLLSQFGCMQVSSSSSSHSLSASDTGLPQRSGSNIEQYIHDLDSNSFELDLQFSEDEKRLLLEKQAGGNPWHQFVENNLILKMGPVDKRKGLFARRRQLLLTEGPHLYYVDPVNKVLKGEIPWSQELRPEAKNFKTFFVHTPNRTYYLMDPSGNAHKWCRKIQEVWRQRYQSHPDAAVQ
The test can be described thus: Selectivity interaction (KinomeScan (DiscoverX)) EUB0001049a PDPK1. The conditions noted are these: at 1 µM.

Test [3] has as its target Serine/threonine-protein kinase SIK2 (Homo sapiens) (UniProt Q9H0K1). The test can be described thus: Selectivity interaction (KinomeScan (DiscoverX)) EUB0000655a SIK2. Particulars: at 10 µM.
Test [4] has as its target Serine/threonine-protein kinase pim-2 (Homo sapiens, UniProt Q9P1W9). The test can be described thus: Selectivity interaction (KinomeScan (DiscoverX)) EUB0000655a PIM2. The conditions noted are these: at 10 µM.
Test [5] addresses Serine/threonine-protein kinase PLK1 (Homo sapiens, UniProt P53350). The test can be described thus: Selectivity interaction (KinomeScan (DiscoverX)) EUB0000655a PLK1. Particulars: at 10 µM.
In test [6] the target is Protein kinase C eta type (Homo sapiens) (UniProt P24723). The test can be described thus: Selectivity interaction (KinomeScan (DiscoverX)) EUB0000045b PRKCH.
Chain of Protein kinase C eta type (Homo sapiens) (P24723 whole entry): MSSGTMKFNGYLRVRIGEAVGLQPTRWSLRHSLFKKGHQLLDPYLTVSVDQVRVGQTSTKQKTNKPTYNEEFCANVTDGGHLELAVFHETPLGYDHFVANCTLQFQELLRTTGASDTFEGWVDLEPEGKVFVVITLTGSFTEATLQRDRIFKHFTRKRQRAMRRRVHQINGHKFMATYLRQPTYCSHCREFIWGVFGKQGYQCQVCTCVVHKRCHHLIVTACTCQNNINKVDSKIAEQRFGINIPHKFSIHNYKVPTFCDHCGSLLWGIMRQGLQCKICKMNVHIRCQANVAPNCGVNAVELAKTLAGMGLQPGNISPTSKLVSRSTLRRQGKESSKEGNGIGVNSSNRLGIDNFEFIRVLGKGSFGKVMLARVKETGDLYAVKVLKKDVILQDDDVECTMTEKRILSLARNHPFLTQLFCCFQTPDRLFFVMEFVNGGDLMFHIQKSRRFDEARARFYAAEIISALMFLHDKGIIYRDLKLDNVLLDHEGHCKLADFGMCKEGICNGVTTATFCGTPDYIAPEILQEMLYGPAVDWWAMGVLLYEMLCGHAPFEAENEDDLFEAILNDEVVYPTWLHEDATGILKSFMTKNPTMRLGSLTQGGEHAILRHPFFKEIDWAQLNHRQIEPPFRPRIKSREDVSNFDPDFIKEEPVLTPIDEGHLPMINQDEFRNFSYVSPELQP
In test [7] the target is T3, Inhibitor of nuclear factor kappa-B kinase subunit alpha (Homo sapiens) (UniProt O15111).
T3 sequence (whole entry): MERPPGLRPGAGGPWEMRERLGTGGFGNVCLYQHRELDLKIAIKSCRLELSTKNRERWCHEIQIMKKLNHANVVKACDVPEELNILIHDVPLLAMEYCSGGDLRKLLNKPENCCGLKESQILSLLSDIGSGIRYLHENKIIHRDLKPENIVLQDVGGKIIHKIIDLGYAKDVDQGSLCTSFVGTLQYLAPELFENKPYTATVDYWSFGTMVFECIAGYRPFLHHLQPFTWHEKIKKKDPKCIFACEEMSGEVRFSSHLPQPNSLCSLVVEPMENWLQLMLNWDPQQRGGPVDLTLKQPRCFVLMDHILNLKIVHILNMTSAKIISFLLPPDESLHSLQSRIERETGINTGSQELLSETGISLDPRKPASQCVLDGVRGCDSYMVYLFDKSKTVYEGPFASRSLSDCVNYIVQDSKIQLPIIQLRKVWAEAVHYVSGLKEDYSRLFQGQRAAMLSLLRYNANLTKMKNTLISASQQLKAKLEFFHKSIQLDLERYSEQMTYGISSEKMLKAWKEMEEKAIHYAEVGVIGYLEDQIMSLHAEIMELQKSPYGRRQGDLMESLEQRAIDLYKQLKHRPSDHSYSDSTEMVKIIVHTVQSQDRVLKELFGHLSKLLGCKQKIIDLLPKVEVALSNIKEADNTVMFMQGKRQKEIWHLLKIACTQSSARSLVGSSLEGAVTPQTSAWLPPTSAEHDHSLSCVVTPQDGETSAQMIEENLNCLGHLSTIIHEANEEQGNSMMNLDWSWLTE
The test can be described thus: Selectivity interaction (KinomeScan (DiscoverX)) EUB0000666a CHUK. The conditions noted are these: at 10 µM.

Test [8] deals with Protein-tyrosine kinase 2-beta (Homo sapiens) (UniProt Q14289). The test can be described thus: Selectivity interaction (Kinase panel (Z-LYTE Assay)) EUB0001632a PTK2B. The conditions noted are these: at 10 µM.
Chain of Protein-tyrosine kinase 2-beta (Homo sapiens) (Q14289 whole entry, looked up): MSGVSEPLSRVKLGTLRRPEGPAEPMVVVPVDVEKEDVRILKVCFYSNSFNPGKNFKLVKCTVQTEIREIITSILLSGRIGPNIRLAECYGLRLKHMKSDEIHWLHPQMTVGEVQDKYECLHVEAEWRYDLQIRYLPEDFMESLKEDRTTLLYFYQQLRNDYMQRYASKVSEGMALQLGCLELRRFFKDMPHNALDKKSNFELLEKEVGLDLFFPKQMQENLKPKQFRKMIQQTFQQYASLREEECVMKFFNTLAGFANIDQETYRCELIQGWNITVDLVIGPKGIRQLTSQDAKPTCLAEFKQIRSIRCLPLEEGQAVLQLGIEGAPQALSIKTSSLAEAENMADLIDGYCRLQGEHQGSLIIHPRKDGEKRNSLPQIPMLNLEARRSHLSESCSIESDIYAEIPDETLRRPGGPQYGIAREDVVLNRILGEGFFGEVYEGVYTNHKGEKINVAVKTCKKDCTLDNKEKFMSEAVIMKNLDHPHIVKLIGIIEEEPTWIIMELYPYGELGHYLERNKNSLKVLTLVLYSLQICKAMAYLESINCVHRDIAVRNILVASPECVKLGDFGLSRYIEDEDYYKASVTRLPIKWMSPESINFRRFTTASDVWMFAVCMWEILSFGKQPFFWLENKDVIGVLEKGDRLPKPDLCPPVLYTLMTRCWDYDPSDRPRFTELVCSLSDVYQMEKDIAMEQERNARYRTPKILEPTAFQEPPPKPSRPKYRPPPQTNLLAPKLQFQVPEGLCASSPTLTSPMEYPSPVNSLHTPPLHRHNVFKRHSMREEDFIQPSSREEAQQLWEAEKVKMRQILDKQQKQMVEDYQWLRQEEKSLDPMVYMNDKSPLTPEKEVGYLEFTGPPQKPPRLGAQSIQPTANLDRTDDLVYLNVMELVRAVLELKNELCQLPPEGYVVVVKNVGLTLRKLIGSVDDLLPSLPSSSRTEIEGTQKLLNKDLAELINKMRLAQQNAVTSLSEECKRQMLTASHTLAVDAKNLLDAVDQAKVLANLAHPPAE
In test [9] the target is T4, Mitogen-activated protein kinase kinase kinase 7 (Homo sapiens) (UniProt O43318).
T4 sequence (whole entry): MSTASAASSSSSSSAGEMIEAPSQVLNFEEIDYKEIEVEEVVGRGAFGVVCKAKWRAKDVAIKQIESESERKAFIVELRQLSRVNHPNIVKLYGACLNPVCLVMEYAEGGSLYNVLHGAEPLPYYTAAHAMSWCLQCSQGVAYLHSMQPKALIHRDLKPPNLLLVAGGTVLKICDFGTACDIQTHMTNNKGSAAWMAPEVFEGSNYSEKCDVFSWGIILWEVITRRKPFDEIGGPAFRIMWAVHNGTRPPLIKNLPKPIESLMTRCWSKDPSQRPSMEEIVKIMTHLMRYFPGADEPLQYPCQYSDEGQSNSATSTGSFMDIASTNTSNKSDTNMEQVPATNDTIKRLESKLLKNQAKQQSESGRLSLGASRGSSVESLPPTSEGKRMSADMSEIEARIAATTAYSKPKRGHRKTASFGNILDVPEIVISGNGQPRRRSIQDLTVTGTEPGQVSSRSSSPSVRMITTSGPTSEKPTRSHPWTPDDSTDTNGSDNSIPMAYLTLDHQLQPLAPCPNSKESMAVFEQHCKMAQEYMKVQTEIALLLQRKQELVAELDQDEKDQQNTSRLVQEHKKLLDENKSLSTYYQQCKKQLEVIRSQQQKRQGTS
The test can be described thus: Selectivity interaction (ActivX KiNativ screen (ex vivo kinase selectivity in human PBMCs)) EUB0001619a MAP3K7. The class given is cell-based. Particulars: PBMC, at 1 µM.

Chain of Serine/threonine-protein kinase SIK2 (Homo sapiens) (Q9H0K1 whole entry, looked up): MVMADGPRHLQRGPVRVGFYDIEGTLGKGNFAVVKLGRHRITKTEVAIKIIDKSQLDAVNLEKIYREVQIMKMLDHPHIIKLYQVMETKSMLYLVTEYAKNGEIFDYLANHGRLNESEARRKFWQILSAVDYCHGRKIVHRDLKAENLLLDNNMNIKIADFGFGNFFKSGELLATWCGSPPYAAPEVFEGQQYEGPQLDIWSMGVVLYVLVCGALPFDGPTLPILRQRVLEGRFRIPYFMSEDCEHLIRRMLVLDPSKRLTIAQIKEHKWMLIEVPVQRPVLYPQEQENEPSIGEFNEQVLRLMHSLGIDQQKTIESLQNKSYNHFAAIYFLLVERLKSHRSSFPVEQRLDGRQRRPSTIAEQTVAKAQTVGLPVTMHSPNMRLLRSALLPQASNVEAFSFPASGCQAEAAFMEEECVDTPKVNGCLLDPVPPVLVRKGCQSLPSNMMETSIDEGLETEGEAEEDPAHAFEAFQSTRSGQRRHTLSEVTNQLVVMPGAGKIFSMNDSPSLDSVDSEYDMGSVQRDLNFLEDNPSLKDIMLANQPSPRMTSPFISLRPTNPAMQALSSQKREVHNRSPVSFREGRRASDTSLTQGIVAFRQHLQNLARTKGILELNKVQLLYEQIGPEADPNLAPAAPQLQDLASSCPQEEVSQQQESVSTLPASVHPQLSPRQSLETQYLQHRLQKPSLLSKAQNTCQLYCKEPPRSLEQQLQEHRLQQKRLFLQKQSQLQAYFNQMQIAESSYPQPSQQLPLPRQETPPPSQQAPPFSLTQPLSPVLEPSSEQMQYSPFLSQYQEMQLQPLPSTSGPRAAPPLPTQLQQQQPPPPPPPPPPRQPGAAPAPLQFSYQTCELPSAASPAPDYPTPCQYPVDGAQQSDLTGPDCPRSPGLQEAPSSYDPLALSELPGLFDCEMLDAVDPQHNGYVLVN
Chain of Serine/threonine-protein kinase pim-2 (Q9P1W9 whole entry, looked up): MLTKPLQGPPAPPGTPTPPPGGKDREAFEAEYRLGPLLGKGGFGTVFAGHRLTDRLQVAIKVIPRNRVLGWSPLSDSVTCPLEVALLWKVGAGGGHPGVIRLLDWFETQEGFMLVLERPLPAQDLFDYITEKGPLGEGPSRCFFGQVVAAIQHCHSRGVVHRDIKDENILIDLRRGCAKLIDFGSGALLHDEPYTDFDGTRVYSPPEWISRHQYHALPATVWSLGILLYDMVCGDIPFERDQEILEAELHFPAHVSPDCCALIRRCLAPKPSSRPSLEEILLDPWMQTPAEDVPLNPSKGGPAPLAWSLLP
Chain of Serine/threonine-protein kinase PLK1 (P53350 whole entry): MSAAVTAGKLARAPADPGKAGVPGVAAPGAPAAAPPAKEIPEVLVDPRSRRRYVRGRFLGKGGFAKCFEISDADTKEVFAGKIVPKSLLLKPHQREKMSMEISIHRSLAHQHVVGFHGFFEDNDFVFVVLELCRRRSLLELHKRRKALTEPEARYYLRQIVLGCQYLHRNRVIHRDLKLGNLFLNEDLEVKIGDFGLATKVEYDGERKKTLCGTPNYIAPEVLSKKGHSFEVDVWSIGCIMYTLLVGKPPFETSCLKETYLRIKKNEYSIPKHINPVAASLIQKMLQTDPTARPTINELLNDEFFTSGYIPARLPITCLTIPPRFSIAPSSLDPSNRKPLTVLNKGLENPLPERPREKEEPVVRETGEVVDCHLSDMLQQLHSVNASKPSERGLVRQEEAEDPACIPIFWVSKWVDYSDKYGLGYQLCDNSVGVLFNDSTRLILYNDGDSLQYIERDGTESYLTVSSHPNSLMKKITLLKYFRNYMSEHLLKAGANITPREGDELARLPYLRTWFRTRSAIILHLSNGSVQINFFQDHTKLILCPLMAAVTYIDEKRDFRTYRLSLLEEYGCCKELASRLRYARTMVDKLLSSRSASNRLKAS

In the case of `Cc1cc([C@@H](C)Nc2ccccc2C(=O)O)c2nc(N3CCOCC3)cc(=O)n2c1` [AZD-6482], the % of control in test [1] was 93%.

The molecule `COc1cc(Nc2nc(C)cc(-c3cnn4nc(OC)ccc34)n2)cc(C(F)(F)F)c1` yielded a % of control in [2] of 100%.

For `CN(C)CCOc1ccc(-c2nc(-c3ccncc3)c(-c3ccc4c(c3)CC/C4=N\O)[nH]2)cc1`, the values for the % of control in test [3], in test [4] and in [5] were 91%, 78% and 100%, respectively.

Take `C=CC(=O)Nc1cc(-n2c(=O)ccc3cnc4ccc(-c5ccc(NS(C)(=O)=O)cc5)cc4c32)ccc1C`: the % of control was 98% in [6] (at 1 µM) and 100% in [6] (at 10 µM).

`O=C(NOC[C@H](O)CO)c1ccc(F)c(F)c1Nc1ccc(I)cc1F` came in with a % of control in test [7] of 100%.

In turn, `Cn1cc(-n2cnc3c(NCc4nc5cc(Cl)c(Cl)cc5[nH]4)nc(N4CCOCC4)nc32)cn1` had a % of control in [8] of 6.24%.

As to `N#Cc1cccc(-c2c[nH]c3ncnc(N4CCOCC4)c23)c1`, in [9], the % of inhibition was 8%.
